Tests used:
Aphis gossypii = experiment: Cotton aphid (Aphis gossypii) mortality on dipped cotton plants; assay type: in vivo; conditions: 120 h, cotton plants in cotyledon stage dipped into test solution, aphid mortality determined after 5 days, read-out: mortality in comparison with untreated controls
Procedure: I. Cotton Aphid (Aphis gossypii)
(§1) Cotton plants in the cotyledon stage (variety ‘Delta Pine’) are infested with approximately 100 laboratory-reared aphids by placing infested leaf sections on top of the test plants. The leaf sections are removed after 24 hours. The cotyledons of the intact plants are dipped into gradient solutions of the test compound. Aphid mortality on the treated plants, relative to mortality on check plants, is determined after 5 days.

Myzus persicae = experiment: Green peach aphid (Myzus persicae) mortality on dipped pepper plants; assay type: in vivo; conditions: 120 h, pepper plants in 2nd leaf-pair stage dipped into test solution, aphid mortality determined after 5 days, read-out: mortality in comparison with untreated controls
Procedure: I.b. Green Peach Aphid (Myzus persicae)
as §1, with “Pepper” for “Cotton”, “2nd leaf-pair” for “cotyledon”, “‘California Wonder’)” for “‘Delta Pine’)”, “40” for “100”, “leaves” for “cotyledons”

melting point	SMILES	mortality at 300 ppm (Aphis gossypii)	mortality at 300 ppm (Myzus persicae)
161 to 163 °C	CC1(C)Cc2ccccc2C1N=C1SCCN1C1=NCCS1 (stereo not drawn)		
	CC1(C)Cc2ccccc2C1NC1=NCCS1 (stereo not drawn) [Example 22, (4,5-Dihydro-thiazol-2-yl)-(2,2-dimethyl-indan-1-yl)-amine]	> 70%	> 70%

Reference: patent US20100167925A1, “Substituted Azolin-2-yl-Amino Compounds” (BASF SE, priority 2006, published 2010)
